For 35 compounds, class results are on record in patent publication US20050197350A1, “Novel quinoline, tetrahydroquinazoline, and pyrimidine derivatives and methods of treatment related to the use thereof” (TAISHO PHARMACEUTICAL CO., LTD., priority 2003, published 2005).

The first assay has as its system MCH receptors. The assay is described as follows: MCH receptor activity class (method not given). Conditions: MCH receptor activity class 1-3 (percent of control at 10^-7 M or IC50).
As to `CN(C)c1nc(N[C@H]2CC[C@@H](CNC(=O)Nc3ccccc3Cl)CC2)nc2c1CCCC2` [compound 2451], the class is 3 (Class 3 The value of percent of control at 10^−7 M was more than 60% or the value of IC50 was more than 200 nM.). On the same count and under the same terms, the same measure for `Cc1cc(Br)cc(C)c1NC(=O)NC[C@H]1CC[C@@H](Nc2cc(N(C)C)c3ccccc3n2)CC1` [compound 2390, N-(4-bromo-2,6-dimethylphenyl)-N′-[(cis-4-{[4-(dimethylamino)quinolin-2-yl]amino}cyclohexyl)methyl]urea]: 1 (Class 1: The value of percent of control at 10^−7 M was less than 40% or the value of IC50 was less than 50 nM.). For the compound `CN(C)c1cc(N[C@H]2CC[C@@H](NC(=S)Nc3ccc(Br)cc3OC(F)(F)F)CC2)nc2ccccc12` [compound 2307], the class was 3 (Class 3 The value of percent of control at 10^−7 M was more than 60% or the value of IC50 was more than 200 nM.).

The assay is the same for the next values; noted with them: MCH receptor; class by percent of control at 10^-7 M or IC50.
Take `CN(C)c1cc(N[C@H]2CC[C@@H](CNC(=O)c3ccc(Br)cc3)CC2)nc2ccccc12` [compound 149]: the class is on record as 3 (Class 3 The value of percent of control at 10^−7 M was more than 60% or the value of IC50 was more than 200 nM.). For `CN(C)c1cc(NC2CCC(CNC(=O)OCc3ccc([N+](=O)[O-])cc3)CC2)nc2ccccc12` (centres unmarked) [compound 183], the class is given as 3 (Class 3 The value of percent of control at 10^−7 M was more than 60% or the value of IC50 was more than 200 nM.).

Take `CN(C)c1nc(N[C@H]2CC[C@@H](NC(=S)Nc3ccccc3I)CC2)nc2c1CCCC2` [compound 1979]: the class is on record as 3 (Class 3 The value of percent of control at 10^−7 M was more than 60% or the value of IC50 was more than 200 nM.).

Still in this assay, the particulars now being: activity class 1-3: percent of control at 10^-7 M or IC50.
As for `CN(C)c1nc(NC2CCC(CNC(=O)OCc3ccc([N+](=O)[O-])cc3)CC2)nc2c1CCCC2` (centres unmarked) [compound 1608], the class is 3 (Class 3 The value of percent of control at 10^−7 M was more than 60% or the value of IC50 was more than 200 nM.). Still for that read-out and setting: under `CCOC(=O)NC[C@H]1CC[C@@H](Nc2cc(N(C)C)c3ccccc3n2)CC1` [compound 1567] stands 3 (Class 3 The value of percent of control at 10^−7 M was more than 60% or the value of IC50 was more than 200 nM.). Regarding `CN(C)c1ccnc(N[C@H]2CC[C@@H](NC(=O)OCc3ccc([N+](=O)[O-])cc3)CC2)n1` [compound 1628], the class is recorded as 3 (Class 3 The value of percent of control at 10^−7 M was more than 60% or the value of IC50 was more than 200 nM.).

The assay is the same for the next values; noted with them: activity class per percent of control at 10^-7 M or IC50.
In the case of `CSc1ccc(CN[C@H]2CC[C@@H](Nc3cc(N(C)C)c4ccccc4n3)CC2)cc1` [compound 1118], the class is recorded as 3 (Class 3 The value of percent of control at 10^−7 M was more than 60% or the value of IC50 was more than 200 nM.). On to `COc1ccc2c(c1)C(CC(=O)N[C@H]1CC[C@@H](Nc3nc4c(c(N(C)C)n3)CCCC4)CC1)CC2=O` (relative stereo) [compound 988], for which the class is 3 (Class 3 The value of percent of control at 10^−7 M was more than 60% or the value of IC50 was more than 200 nM.).

In the case of `CN(C)c1nc(N[C@H]2CC[C@@H](CNC(=O)Cc3c(Cl)ccc(Cl)c3Cl)CC2)nc2c1CCCC2` [compound 1062], the class is given as 2 (Class 2: The value of percent of control at 10^−7 M was from 40% to 60% or the value of IC′50 was from 50 nM to 200 nM.). As to `Cc1c(C(=O)N[C@H]2CC[C@@H](Nc3nc4c(c(N(C)C)n3)CCCC4)CC2)cc(-c2ccccc2)n1CCCN1CCOCC1` [compound 1000], the class is 1 (Class 1: The value of percent of control at 10^−7 M was less than 40% or the value of IC50 was less than 50 nM.).

The assay is the same for the next values; noted with them: class 1-3 by percent of control at 10^-7 M or IC50.
With `CN(C)c1nc(N[C@H]2CC[C@@H](NC(=O)c3cc(Cl)cc(Cl)c3)CC2)nc2c1CCCC2` [compound 466, 3,5-dichloro-N-(cis-4-{[4-(dimethylamino)-5,6,7,8-tetrahydroquinazolin-2-yl]amino}cyclohexyl)benzamide], the class is reported as 1 (Class 1: The value of percent of control at 10^−7 M was less than 40% or the value of IC50 was less than 50 nM.).

As for `CCC(Oc1ccccc1)C(=O)N[C@H]1CC[C@@H](Nc2nc3c(c(N(C)C)n2)CCCC3)CC1` (relative stereo) [compound 484], the class was 1 (Class 1: The value of percent of control at 10^−7 M was less than 40% or the value of IC50 was less than 50 nM.). `Cc1nn(-c2ccccc2)nc1C(=O)N[C@H]1CC[C@@H](Nc2nc3c(c(N(C)C)n2)CCCC3)CC1` [compound 543]: the class is 2 (Class 2: The value of percent of control at 10^−7 M was from 40% to 60% or the value of IC′50 was from 50 nM to 200 nM.). Still for that read-out and setting: under `CN(C)c1nc(N[C@H]2CC[C@@H](NC(=O)c3cccnc3Sc3ccccc3)CC2)nc2c1CCCC2` [compound 572] stands 3 (Class 3 The value of percent of control at 10^−7 M was more than 60% or the value of IC50 was more than 200 nM.); under `CN(C)c1ccnc(N[C@H]2CC[C@@H](CNC(=O)c3cccc(Cl)c3Cl)CC2)n1` [compound 442], 3 (Class 3 The value of percent of control at 10^−7 M was more than 60% or the value of IC50 was more than 200 nM.).

The assay is the same for the next values; noted with them: class by percent of control at 10^-7 M or IC50.
For `CN(C)c1cc(N[C@H]2CC[C@@H](NC(=O)c3ccc([N+](=O)[O-])cc3F)CC2)nc2ccccc12` [compound 773], the class is 3 (Class 3 The value of percent of control at 10^−7 M was more than 60% or the value of IC50 was more than 200 nM.). Still for that read-out and setting: under `CN(C)c1nc(N[C@H]2CC[C@@H](NCC(c3ccc(Cl)cc3)c3ccc(Cl)cc3)CC2)nc2c1CCCC2` [compound 1495] stands 3 (Class 3 The value of percent of control at 10^−7 M was more than 60% or the value of IC50 was more than 200 nM.). For the compound `CN(C)c1ccc(CNC[C@H]2CC[C@@H](Nc3nccc(N(C)C)n3)CC2)cc1` [compound 1272], the class is on record as 3 (Class 3 The value of percent of control at 10^−7 M was more than 60% or the value of IC50 was more than 200 nM.). Regarding `Cc1cc(CN[C@H]2CC[C@@H](Nc3nccc(N(C)C)n3)CC2)c(C)n1-c1ccccc1` [compound 1230], the class was 3 (Class 3 The value of percent of control at 10^−7 M was more than 60% or the value of IC50 was more than 200 nM.). On to `CN(C)c1ccnc(N[C@H]2CC[C@@H](NC(=O)c3ccccc3-c3ccccc3)CC2)n1` [compound 894], for which the class is listed as 3 (Class 3 The value of percent of control at 10^−7 M was more than 60% or the value of IC50 was more than 200 nM.). For `CN(C)c1nc(N[C@H]2CC[C@@H](CNC(=O)c3cccc(I)c3)CC2)nc2c1CCCC2` [compound 620], the class is 3 (Class 3 The value of percent of control at 10^−7 M was more than 60% or the value of IC50 was more than 200 nM.). As to `COc1cccc2cc(C(=O)N[C@H]3CC[C@@H](Nc4cc(N(C)C)c5ccccc5n4)CC3)oc12` [compound 782], the class is given as 3 (Class 3 The value of percent of control at 10^−7 M was more than 60% or the value of IC50 was more than 200 nM.). As to `CN(C)c1ccnc(N[C@H]2CC[C@@H](CNC(=O)Cc3ccc(F)cc3Cl)CC2)n1` [compound 927], the class is recorded as 3 (Class 3 The value of percent of control at 10^−7 M was more than 60% or the value of IC50 was more than 200 nM.). Take `COc1cc([N+](=O)[O-])ccc1NC(=S)N[C@H]1CC[C@@H](Nc2cc(N(C)C)c3ccccc3n2)CC1` [compound 2269]: the class is reported as 3 (Class 3 The value of percent of control at 10^−7 M was more than 60% or the value of IC50 was more than 200 nM.). As to `CCOc1ccc(Br)cc1CNC[C@H]1CC[C@@H](Nc2cc(N(C)C)c3ccccc3n2)CC1` [compound 1166], the class is on record as 3 (Class 3 The value of percent of control at 10^−7 M was more than 60% or the value of IC50 was more than 200 nM.). For `CN(C)c1ccnc(N[C@H]2CC[C@@H](CNCC=C(c3ccccc3)c3ccccc3)CC2)n1` [compound 1279], the class is on record as 1 (Class 1: The value of percent of control at 10^−7 M was less than 40% or the value of IC50 was less than 50 nM.).

The same assay, now with this note: class by percent of control at 10^−7 M or IC50.
With `COc1ccc([C@H](C)NC(=O)[C@H]2CC[C@@H](Nc3nc(C)cc(N(C)C)n3)CC2)cc1` [compound 2802, cis-4-{[4-(dimethylamino)-6-methylpyrimidin-2-yl]amino}-N-[(1S)-1-(4-methoxyphenyl)ethyl]cyclohexanecarboxamide], the class was 1 (Class 1: The value of percent of control at 10^−7 M was less than 40% or the value of IC50 was less than 50 nM.). For `Cc1cnc(N[C@H]2CC[C@@H](NC(=O)c3cccnc3Oc3cccc(Cl)c3)CC2)nc1N(C)C` [compound 2893, 2-(3-chlorophenoxy)-N-(cis-4-{[4-(dimethylamino)-5-methylpyrimidin-2-yl]amino}cyclohexyl)nicotinamide], the class was 1 (Class 1: The value of percent of control at 10^−7 M was less than 40% or the value of IC50 was less than 50 nM.). For `Cc1cnc(NC[C@H]2CC[C@@H](NC(=O)c3ccc(F)c(F)c3)CC2)nc1N(C)C` [compound 2714], the class is 3 (Class 3 The value of percent of control at 10^−7 M was more than 60% or the value of IC50 was more than 200 nM.). `Cc1cnc(N[C@H]2CC[C@@H](C(=O)NC(C)c3ccc(Br)cc3)CC2)nc1N(C)C` (relative stereo) [compound 2779]: the class was 1 (Class 1: The value of percent of control at 10^−7 M was less than 40% or the value of IC50 was less than 50 nM.). With `Cc1cc(N(C)C)nc(N[C@H]2CC[C@@H](NC(=O)c3cccc(C#N)c3)CC2)n1` [compound 2957, 3-cyano-N-(cis-4-{[4-(dimethylamino)-6-methylpyrimidin-2-yl]amino}cyclohexyl)benzamide], the class is recorded as 1 (Class 1: The value of percent of control at 10^−7 M was less than 40% or the value of IC50 was less than 50 nM.). With `Cc1cc(N(C)C)nc(N[C@H]2CC[C@@H](C(=O)N[C@@H](C)c3ccc(Cl)cc3)CC2)n1` [compound 2797, cis-N-[(1S)-1-(4-chlorophenyl)ethyl]-4-{[4-(dimethylamino)-6-methylpyrimidin-2-yl]amino}cyclohexanecarboxamide], the class is given as 1 (Class 1: The value of percent of control at 10^−7 M was less than 40% or the value of IC50 was less than 50 nM.).
